Blank lines part the entries; values can stand above or below the molecule they belong to. Activity calls are given as the source filed them.
What was measured:
[1] = molecular target: FAD-linked sulfhydryl oxidase ALR (Homo sapiens, UniProt P55789); assay: ALR-catalysed DTT oxidation blockers – biochemical, H2O2 detection, luminescence, cherry-pick, dose response (AID 493248)
Interleukin-8 [2] = molecular target: T1, Interleukin-8 (Homo sapiens, UniProt P10145); assay: Dose Response confirmation of uHTS small molecule hits for cystic fibrosis induced NFkb Inhibitors in a PAF-induced IL8 counterscreen.; type: functional; conditions: read-out: IC50_Mean
T1 sequence (P10145 whole entry): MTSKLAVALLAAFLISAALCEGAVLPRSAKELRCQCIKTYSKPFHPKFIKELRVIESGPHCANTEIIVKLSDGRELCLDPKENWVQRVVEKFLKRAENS

Interleukin-8 [3] = molecular target: T1, Interleukin-8; assay: Dose Response confirmation of uHTS small molecule hits for cystic fibrosis induced NFkb Inhibitors in a TNFa-induced IL8 counterscreen.; type: functional; conditions: read-out: IC50_Mean
HEK293 [4] = assay: EBV LMP1 TES2 canonical NF-kB signalling blockers – cell-based, HEK293, luciferase, cherry-pick, dose response (AID 588343); type: functional; conditions: Homo sapiens
[5] = molecular target: Latent membrane protein 1 (Human herpesvirus 4 (strain B95-8), UniProt P03230); assay: LMP1 TES1 pathway selectivity over dsRED control – imaging, HEK293T, dual-color eGFP/dsRED, cherry-picks, selectivity assay for LMP1 NF-kB inhibitor project, dose response (AID 588398); type: functional, cell-based
Chain of Latent membrane protein 1 (P03230 whole entry): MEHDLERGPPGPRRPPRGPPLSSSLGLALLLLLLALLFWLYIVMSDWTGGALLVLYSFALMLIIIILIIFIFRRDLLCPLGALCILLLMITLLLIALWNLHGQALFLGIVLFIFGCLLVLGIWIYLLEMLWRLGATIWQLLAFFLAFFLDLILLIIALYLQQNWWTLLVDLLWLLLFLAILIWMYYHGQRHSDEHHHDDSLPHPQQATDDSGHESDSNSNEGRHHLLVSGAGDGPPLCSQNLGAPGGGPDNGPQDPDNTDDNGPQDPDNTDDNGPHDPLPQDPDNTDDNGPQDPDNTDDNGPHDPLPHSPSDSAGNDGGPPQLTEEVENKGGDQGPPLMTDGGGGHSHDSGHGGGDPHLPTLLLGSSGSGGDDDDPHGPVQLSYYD

[6] = molecular target: T2, Neuropeptides B/W receptor type 1 (Homo sapiens, UniProt P48145); assay: human NPBW1 receptor blockade, IC50 – cell-based, fluorescence, dose response, set 5, late-stage follow-up (AID 588566); type: functional
T2 sequence (P48145 whole entry): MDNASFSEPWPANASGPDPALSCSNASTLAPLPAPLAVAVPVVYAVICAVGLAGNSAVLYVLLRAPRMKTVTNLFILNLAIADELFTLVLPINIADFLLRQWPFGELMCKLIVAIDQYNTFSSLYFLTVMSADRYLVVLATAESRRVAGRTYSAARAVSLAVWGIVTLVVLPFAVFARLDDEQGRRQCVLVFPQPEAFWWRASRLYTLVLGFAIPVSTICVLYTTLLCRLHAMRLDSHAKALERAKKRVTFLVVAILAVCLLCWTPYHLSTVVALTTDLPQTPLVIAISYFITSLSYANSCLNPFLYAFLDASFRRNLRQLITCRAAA

[7] = molecular target: Melanin-concentrating hormone receptor 1 (Homo sapiens, UniProt Q99705); assay: Late-stage fluorescence-based counterscreen for antagonists of the G-protein coupled receptor 7 (GPR7): cell-based dose response assay to identify antagonists of the melanin-concentrating hormone receptor 1 (MCHR1) Set 5.; type: functional
Chain of Melanin-concentrating hormone receptor 1 (Q99705 whole entry): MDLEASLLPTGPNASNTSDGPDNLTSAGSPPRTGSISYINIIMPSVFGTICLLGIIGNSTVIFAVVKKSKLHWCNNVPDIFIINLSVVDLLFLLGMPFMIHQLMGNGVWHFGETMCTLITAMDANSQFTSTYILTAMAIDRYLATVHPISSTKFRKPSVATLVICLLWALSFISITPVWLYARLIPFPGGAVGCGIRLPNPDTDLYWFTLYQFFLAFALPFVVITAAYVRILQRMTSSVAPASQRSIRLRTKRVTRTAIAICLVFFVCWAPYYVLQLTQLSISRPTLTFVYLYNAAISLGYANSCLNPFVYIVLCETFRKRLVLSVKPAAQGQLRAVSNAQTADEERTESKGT

[8] = molecular target: T3, Heat shock factor protein 1 (Mus musculus, UniProt P38532); assay: decrease of HSF1-responsive luciferase luminescence – cell-based, NIH3T3, dose retest, confirmation (AID 2382); type: functional;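 also: NIH3T3 fibroblasts with HSF1-driven luciferase reporter stressed by proteasome inhibitor MG132; luminescence from HSF1-driven luciferase expression after 8 hours of MG132 stress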
T3 sequence (P38532 whole entry): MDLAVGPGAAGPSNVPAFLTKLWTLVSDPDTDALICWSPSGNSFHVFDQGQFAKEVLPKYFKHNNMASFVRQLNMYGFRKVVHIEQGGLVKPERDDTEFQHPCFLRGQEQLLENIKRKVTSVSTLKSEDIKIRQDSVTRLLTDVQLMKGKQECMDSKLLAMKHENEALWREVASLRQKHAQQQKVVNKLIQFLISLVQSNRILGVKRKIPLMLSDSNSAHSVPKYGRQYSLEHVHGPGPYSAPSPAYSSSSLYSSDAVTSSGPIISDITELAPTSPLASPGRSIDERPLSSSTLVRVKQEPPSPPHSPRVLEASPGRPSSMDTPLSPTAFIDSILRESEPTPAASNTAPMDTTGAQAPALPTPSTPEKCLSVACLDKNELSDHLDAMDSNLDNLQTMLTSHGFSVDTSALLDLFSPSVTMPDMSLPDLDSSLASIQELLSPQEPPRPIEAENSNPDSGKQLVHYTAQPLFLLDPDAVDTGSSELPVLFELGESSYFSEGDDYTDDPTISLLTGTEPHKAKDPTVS

[9] = molecular target: T4, Apoptotic protease-activating factor 1 (Homo sapiens, UniProt O14727); assay: SAR analysis of small molecule Activators of Apaf-1 in a Fluorescent assay.; type: functional; conditions: read-out: EC50_Mean;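 also: caspase-3 cleavage of fluorogenic Rh110 DEVD substrate downstream of apoptosome activation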
T4 sequence (O14727 whole entry): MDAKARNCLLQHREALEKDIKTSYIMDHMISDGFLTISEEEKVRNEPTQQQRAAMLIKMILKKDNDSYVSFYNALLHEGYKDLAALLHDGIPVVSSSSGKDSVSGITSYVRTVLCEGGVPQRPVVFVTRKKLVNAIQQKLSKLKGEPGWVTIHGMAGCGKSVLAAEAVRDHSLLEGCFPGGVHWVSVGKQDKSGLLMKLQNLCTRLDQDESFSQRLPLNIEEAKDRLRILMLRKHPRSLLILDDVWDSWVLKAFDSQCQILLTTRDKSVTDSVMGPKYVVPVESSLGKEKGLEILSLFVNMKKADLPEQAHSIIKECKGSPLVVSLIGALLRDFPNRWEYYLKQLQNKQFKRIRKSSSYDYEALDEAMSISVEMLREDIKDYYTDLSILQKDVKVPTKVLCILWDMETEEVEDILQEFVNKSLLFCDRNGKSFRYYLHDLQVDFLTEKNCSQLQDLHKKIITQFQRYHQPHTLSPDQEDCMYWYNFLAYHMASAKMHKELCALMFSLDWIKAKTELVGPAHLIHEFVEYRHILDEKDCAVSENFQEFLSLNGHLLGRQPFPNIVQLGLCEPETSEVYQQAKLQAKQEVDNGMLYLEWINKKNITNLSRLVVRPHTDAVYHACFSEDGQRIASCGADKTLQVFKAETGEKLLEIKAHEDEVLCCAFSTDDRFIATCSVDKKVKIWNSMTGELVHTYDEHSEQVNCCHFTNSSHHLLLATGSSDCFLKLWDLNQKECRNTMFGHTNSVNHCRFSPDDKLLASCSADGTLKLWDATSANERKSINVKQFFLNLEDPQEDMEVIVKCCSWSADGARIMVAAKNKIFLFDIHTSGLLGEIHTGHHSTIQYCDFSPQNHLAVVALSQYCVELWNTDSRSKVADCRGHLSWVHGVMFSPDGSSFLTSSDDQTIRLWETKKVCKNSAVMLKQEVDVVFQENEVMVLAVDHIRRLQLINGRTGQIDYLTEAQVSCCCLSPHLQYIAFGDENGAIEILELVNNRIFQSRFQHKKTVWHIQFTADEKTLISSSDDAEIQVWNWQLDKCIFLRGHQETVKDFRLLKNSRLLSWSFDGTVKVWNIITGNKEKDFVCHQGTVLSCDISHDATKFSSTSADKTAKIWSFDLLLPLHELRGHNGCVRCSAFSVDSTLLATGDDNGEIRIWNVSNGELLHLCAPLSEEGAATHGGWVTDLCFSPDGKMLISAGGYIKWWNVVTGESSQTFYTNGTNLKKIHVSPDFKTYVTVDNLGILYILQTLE

[10] = viability loss of HMLE_sh_eGFP cells – cell-based, luminescence, counter-screen for HMLE_sh_ECad selective toxicity project, dose response (AID 463074); type: functional, Homo sapiens;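 also: HMLE human mammary epithelial cells expressing control shRNA against eGFP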
[11] = Luminescence Cell-Based Dose Retest to Confirm Inhibitors of Cancer Stem Cells. [Related pubchem assays (depositor defined):AID2717, AID2721]; type: functional; conditions: Homo sapiens
[12] = fluconazole-exposed Candida albicans growth modulators – fluorescence, retest, confirmation (AID 2467); type: functional, cell-based
[13] = NIH-3T3 fibroblast cytotoxicity, dose response, cytotoxicity control, cell-based, fluorescence, Alamar Blue, secondary assay (AID 2327); type: functional;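 also: NIH-3T3 mouse fibroblasts cultured with fluconazole at 8 µg/mL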
HEK293 [14] = assay: SAR Analysis of small molecule inhibitors of T-cell specific antigen receptor-induced NF-kB activation in a HEK-293T cell line using a luminescence assay - Set 2. [Related pubchem assays (depositor defined):AID435003, AID435012, AID489026]; type: functional, cell-based; conditions: Homo sapiens
HEK293 [15] = assay: HEK293T cell viability loss, resazurin readout – resazurin fluorescence, cytotoxicity control for NF-kB activator project, SAR follow-up (AID 493251); type: functional, cell-based; conditions: Homo sapiens
Jurkat = assay: SAR Analysis of small molecule inhibitors of T-cell specific antigen receptor-induced NF-kB activation in a Jurkat cell line using a luminescence assay - Set 2. [Related pubchem assays (depositor defined):AID435003, AID435012, AID465]; type: functional, cell-based; conditions: Homo sapiens

Chain of FAD-linked sulfhydryl oxidase ALR (P55789 whole entry): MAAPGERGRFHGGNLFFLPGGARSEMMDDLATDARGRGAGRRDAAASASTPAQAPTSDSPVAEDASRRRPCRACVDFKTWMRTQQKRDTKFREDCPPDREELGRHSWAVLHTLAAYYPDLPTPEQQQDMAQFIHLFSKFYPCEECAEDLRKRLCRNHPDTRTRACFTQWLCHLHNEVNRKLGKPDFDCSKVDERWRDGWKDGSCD

AC50 [1]: 9.8 µM (active)
IC50 (Interleukin-8 [2]): 43.5 µM (inactive)
IC50 (Interleukin-8 [3]): > 79 µM (inactive)
Compound: COc1ccc(-c2c[nH]nc2-c2ccc(OC)cc2O)cc1

Compound: CCOC(=O)c1c(-n2cccc2)sc2c1CCCC2=O
AC50 (HEK293 [4]): 12.3 µM (active)
AC50 [5]: 4.1 µM (active)

IC50 [6]: > 20 µM (inactive)
IC50 [7]: > 20 µM (inactive)
Compound: CCOc1ccc(Oc2c(N3CCCC3)c(Br)nn(Cc3cccc4ccccc34)c2=O)cc1

EC50 [8]: > 195 µM (not active)
EC50 [9]: > 100 µM (inactive)
Compound: Cc1c(NC(=O)C2CC(c3ccc(F)cc3)=NO2)c(=O)n(-c2ccccc2)n1C (centres undefined)

Compound: O=C1Nc2cc(C(=O)N3CCc4ccccc4C3)ccc2S/C1=C\c1ccccc1
AC50 [10]: 55.5 µM (active)
AC50 [11]: 3.43 µM (active)

Compound: COc1ccc(OC2C(=O)N(Cc3ccc4c(c3)OCO4)C2c2sccc2C)cc1 (centres undefined)
EC50 [8]: > 195 µM (not active)
AC50 [10]: 40.4 µM (active)
AC50 [11]: 29.8 µM (active)
EC50 [12]: > 38 µM (not active)
EC50 [13]: > 160 µM (inactive)

Compound: COc1ccc(C(=O)Nc2ccc(NC(=O)c3cc4ccccc4o3)cc2)cc1[N+](=O)[O-]
IC50 (HEK293 [14]): > 80 µM (inactive)
IC50 (HEK293 [15]): > 80 µM (inactive)
IC50 (Jurkat): 76.7 µM (inactive)

Reference: ChEMBL document CHEMBL1201862, “PubChem BioAssay data set” (2004)
